Drawing on PubChem BioAssay (NCI), this text covers TGI for 8 compounds.

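Compound exposure: 48 hours, 5 concentrations, 96-well plates. TGI marks complete inhibition of growth.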 Bounds are passed on as bounds.

Among the test systems are A498 renal; A549 NSCLC; BT-549 breast; CAKI-1 renal; EKVX NSCLC; HT29 colon; MDA-N; MOLT-4 leukemia; NCI-H226 lung; NCI-H23 lung; NCI/ADR-RES ovarian; OVCAR-4 ovarian; SF-268 CNS; SF-295 CNS; SNB-75 CNS; SR leukemia; T-47D breast; UACC-62 melanoma; HL-60(TB) leukemia.
Holding throughout (experiment): NCI anticancer screen, dose series, 48 h

As to `CN(Cc1cccc2ccsc12)/N=C\c1ccc(Cl)cc1`, the TGI with A498 renal, in the experiment on A549 NSCLC, with BT-549 breast, in the experiment with CAKI-1 renal, with EKVX NSCLC and with HT29 colon was above 100 µM in each case. The TGI in the experiment on MDA-N, with MOLT-4 leukemia, in the experiment with NCI-H226 lung, in the experiment on NCI-H23 lung, with NCI/ADR-RES ovarian and in the experiment on OVCAR-4 ovarian was above 100 µM in each case. Moreover, the TGI with SF-268 CNS, in the experiment with SF-295 CNS, in the experiment with SNB-75 CNS, with SR leukemia, in the experiment on T-47D breast and in the experiment on UACC-62 melanoma was above 100 µM each time.

As for `COC(=O)[C@@H]1Cc2ccc(OC)c(c2)OCCC(=O)N1`, the TGI in the experiment on A549 NSCLC, with BT-549 breast, with CAKI-1 renal, in the experiment on EKVX NSCLC, in the experiment with HT29 colon and with MDA-N was above 100 µM each time. Further, the TGI with MOLT-4 leukemia, in the experiment on NCI-H226 lung, in the experiment on NCI-H23 lung, in the experiment with NCI/ADR-RES ovarian, in the experiment on OVCAR-4 ovarian and in the experiment with SF-268 CNS was above 100 µM in each case. In addition, the TGI in the experiment on SF-295 CNS, with SNB-75 CNS, in the experiment on SR leukemia, in the experiment with T-47D breast and in the experiment with UACC-62 melanoma was above 100 µM throughout.

In the case of `Cc1cccc(C)c1NC(=O)C(=O)CC(=O)c1sc(Nc2c(C)cccc2C)nc1C`, the TGI with A498 renal, in the experiment on A549 NSCLC, in the experiment with BT-549 breast, in the experiment with CAKI-1 renal, with EKVX NSCLC and with HL-60(TB) leukemia was above 100 µM in each case. The TGI in the experiment on HT29 colon, in the experiment on MDA-N, with MOLT-4 leukemia, in the experiment on NCI-H226 lung, in the experiment with NCI-H23 lung and in the experiment with NCI/ADR-RES ovarian was above 100 µM each time. In addition, the TGI with OVCAR-4 ovarian, with SF-268 CNS, in the experiment with SF-295 CNS, with SNB-75 CNS, in the experiment on T-47D breast and in the experiment on UACC-62 melanoma was above 100 µM in each case.

Regarding `COC(=O)/C=C1\C(CO[Si](C)(C)C(C)(C)C)OC(n2ccc(=O)[nH]c2=O)C1O` (stereo not given), the TGI in the experiment on A498 renal is 41.6 µM; with A549 NSCLC it was 82.9 µM; in the experiment with BT-549 breast, above 80.5 µM; in the experiment on CAKI-1 renal, above 100 µM; in the experiment with EKVX NSCLC, 59.8 µM; in the experiment on HT29 colon, 80.5 µM. Besides, the TGI with MDA-N was above 66.4 µM; with MOLT-4 leukemia it was above 31.6 µM; with NCI-H226 lung, 19.5 µM; in the experiment on NCI-H23 lung it was 55.3 µM; in the experiment on NCI/ADR-RES ovarian, 38.4 µM; in the experiment with OVCAR-4 ovarian, above 100 µM. Further, the TGI in the experiment on SF-268 CNS was 2.39 µM; in the experiment on SF-295 CNS it was above 100 µM; in the experiment on SNB-75 CNS, above 100 µM; with SR leukemia, 26.4 µM; in the experiment on T-47D breast, above 22.3 µM; with UACC-62 melanoma, 54.1 µM.

Take `CCN(C(=O)N[C@@H](CC(C)C)C(=O)NCC(=O)OC)c1ccccc1`: the TGI in the experiment on A549 NSCLC, in the experiment on BT-549 breast, in the experiment with CAKI-1 renal, with EKVX NSCLC, in the experiment with HT29 colon and in the experiment on MDA-N was above 100 µM each time. The TGI in the experiment on MOLT-4 leukemia, in the experiment with NCI-H226 lung, with NCI-H23 lung, in the experiment with NCI/ADR-RES ovarian, with OVCAR-4 ovarian and in the experiment with SF-295 CNS was above 100 µM throughout. Also, the TGI in the experiment with SNB-75 CNS is above 100 µM; in the experiment on SR leukemia, above 100 µM; with T-47D breast it was above 100 µM; with UACC-62 melanoma it was 97.1 µM.

Consider `O=c1c2sc3ccccc3sc=2c(=O)c2c(Cl)c(Cl)c(Cl)c(Cl)c12`, for which the TGI in the experiment on A498 renal, with A549 NSCLC, in the experiment with BT-549 breast, in the experiment with CAKI-1 renal, in the experiment on EKVX NSCLC and with HT29 colon was above 100 µM in each case. In addition, the TGI in the experiment on MDA-N, with MOLT-4 leukemia, with NCI-H226 lung, in the experiment on NCI-H23 lung, with NCI/ADR-RES ovarian and with OVCAR-4 ovarian was above 100 µM each time. The TGI with SF-268 CNS, with SF-295 CNS, in the experiment on SNB-75 CNS, in the experiment on SR leukemia, with T-47D breast and in the experiment with UACC-62 melanoma was above 100 µM throughout.

In the case of `CO/C(N)=C(\C#N)N=Cc1ccsc1`, the TGI with A498 renal was above 100 µM; in the experiment on A549 NSCLC it was above 100 µM; in the experiment on BT-549 breast, 69.7 µM; in the experiment with CAKI-1 renal, above 100 µM; with EKVX NSCLC, above 100 µM; with HL-60(TB) leukemia, 45.9 µM. Besides, the TGI in the experiment on HT29 colon, with MDA-N, with MOLT-4 leukemia, in the experiment on NCI-H226 lung, in the experiment on NCI-H23 lung and with NCI/ADR-RES ovarian was above 100 µM in each case. Moreover, the TGI with OVCAR-4 ovarian, in the experiment with SF-268 CNS, in the experiment with SF-295 CNS, in the experiment with SNB-75 CNS, in the experiment with T-47D breast and with UACC-62 melanoma was above 100 µM in each case.

Turning to `CC(=O)Nc1nc2c(=O)c3ccccc3sc2s1`, the TGI in the experiment on A498 renal, in the experiment on A549 NSCLC, in the experiment on BT-549 breast, in the experiment on CAKI-1 renal, in the experiment with EKVX NSCLC and in the experiment on HL-60(TB) leukemia was above 100 µM each time. The TGI in the experiment with HT29 colon, in the experiment on MDA-N, with MOLT-4 leukemia, with NCI-H226 lung, in the experiment on NCI-H23 lung and in the experiment on NCI/ADR-RES ovarian was above 100 µM throughout. Further, the TGI in the experiment on SF-268 CNS, in the experiment on SF-295 CNS, in the experiment with SNB-75 CNS, with T-47D breast and in the experiment with UACC-62 melanoma was above 100 µM in each case.
